The values that follow come from publication PMC10647736, “Aza Analogs of the TRPML1 Inhibitor Estradiol Methyl Ether (EDME)” (Molecules, 2023).

Series [1] deals with T1, hTRPML1ΔNC-YFP, a plasma membrane variant of wild-type TRPML1 (Homo sapiens, UniProt Q9GZU1). On the set-up: method as in PMID 33859333. The settings on record: previous work, cited from earlier work; for IC50: hTRPML1ΔNC-YFP, read-out: IC50 TRPML1 inhibition.
For series [2], the target named is T1, hTRPML1ΔNC-YFP, a plasma membrane variant of wild-type TRPML1. The series can be described thus: TRPML1 inhibition, fluorimetric Ca2+ influx assay (Fluo-4/AM) on HEK293 cells stably expressing plasma membrane-targeted TRPML1. It counts as cell-based. The settings on record: for IC50 / TRPML1-inhibitory activity (in words): hTRPML1ΔNC-YFP; for IC50: HEK293 cells, Ca2+ influx, Fluo-4/AM; for TRPML1-inhibitory activity (in words): Ca2+ influx assay. The source says:
The two target compounds, pyridine analog 1 and pyrimidine analog 2, as well as the inadvertently obtained pyridone analog 6 were submitted to our previously described test for inhibition of TRPML1 on hTRPML1ΔNC-YFP, a plasma membrane variant of wild-type TRPML1 by means of a fluorimetric Ca^2+ influx assay.
hTRPML1ΔNC-YFP, a plasma membrane variant of wild-type TRPML1, was obtained from HEK293 cells stably expressing plasma membrane-targeted TRPML1 by trypsination and after resuspending in HEPES buffered solution. IC50 values for TRPML1 inhibition were determined on a fluorescence imaging plate reader built into a robotic liquid handling station (Freedom Evo 150, Tecan, Mannedorf, Switzerland) using the calcium dye Fluo-4/AM (Invitrogen, Thermo Fisher Scientific, Waltham, MA, USA) according to the test procedure described in our previous work in the section Compound screening and generation of concentration–response curves.

Details of series [3]: method as in PMID 33859333. The settings on record: compared to EDME; cited from earlier work.

“Also recorded” adds a separate entry of the source. Read-outs that look alike come from different tables or passages of the source.

T1 sequence (Q9GZU1 whole entry, stated change not applied): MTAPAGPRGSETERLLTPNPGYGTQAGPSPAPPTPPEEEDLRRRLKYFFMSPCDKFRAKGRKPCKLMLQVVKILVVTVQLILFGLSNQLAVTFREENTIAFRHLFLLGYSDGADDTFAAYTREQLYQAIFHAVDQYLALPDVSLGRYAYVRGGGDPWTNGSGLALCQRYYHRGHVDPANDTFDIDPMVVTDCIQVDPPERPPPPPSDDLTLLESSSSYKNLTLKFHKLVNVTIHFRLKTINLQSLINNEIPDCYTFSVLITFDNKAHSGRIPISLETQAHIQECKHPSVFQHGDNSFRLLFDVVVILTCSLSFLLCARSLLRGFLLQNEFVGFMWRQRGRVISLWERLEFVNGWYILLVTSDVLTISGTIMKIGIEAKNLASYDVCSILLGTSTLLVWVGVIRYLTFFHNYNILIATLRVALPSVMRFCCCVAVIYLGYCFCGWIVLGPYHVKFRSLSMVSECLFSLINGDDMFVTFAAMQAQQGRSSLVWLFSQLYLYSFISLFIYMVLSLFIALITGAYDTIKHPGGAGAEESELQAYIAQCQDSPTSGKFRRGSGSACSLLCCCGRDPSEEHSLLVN

Broadly, the IC50 is the point on the concentration scale where inhibition reaches its midpoint. `C[C@]12CC[C@@H]3c4ccc(O)cc4CC[C@H]3[C@@H]1CC[C@@H]2O` [17β-estradiol]: the IC50 in series [1] is 5300 nM.

Broadly, the melting point is the temperature, or range, at which the solid turns liquid. For the compound `COc1ccc2c(n1)CC[C@@H]1[C@@H]2CC[C@]2(C)[C@@H](O)CC[C@@H]12` [Compound 1, (4bS,6aS,7S,9aS,9bR)-2-Methoxy-6a-methyl-4b,6,6a,7,8,9,9a,9b,10,11-decahydro-5H-indeno[5,4-f]quinolin-7-ol], the melting point worked out at 157 °C. Besides, the “TRPML1-inhibitory activity, factor less potent than EDME” value in series [2] (compared to EDME) is on record as below 2. This compound also returned a half-maximal inhibitory concentration (IC50) in series [2] of 1000 nM.

On to `COc1ncc2c(n1)CC[C@@H]1[C@@H]2CC[C@]2(C)[C@@H](O)CC[C@@H]12` [Compound 2, (4bS,6aS,7S,9aS,9bR)-2-Methoxy-6a-methyl-4b,6,6a,7,8,9,9a,9b,10,11-decahydro-5H-indeno[5,4-f]quinazolin-7-ol], for which, in series [2], the “TRPML1-inhibitory activity (in words)” value is reported as “only a very weak inhibitor; also recorded: significantly lost inhibitory potency” and the IC50 came out at 8800 nM.

Consider `C[C@]12CC[C@@H]3c4ccc(=O)[nH]c4CC[C@H]3[C@@H]1CC[C@@H]2O` [Compound 6, (4bS,6aS,7S,9aS,9bR)-7-hydroxy-6a-methyl-1,4b,5,6,6a,7,8,9,9a,9b,10,11-dodecahydro-2H-indeno[5,4-f]quinolin-2-one], for which, in series [2], the “TRPML1-inhibitory activity (in words)” value is “virtually inactive” and half-maximal inhibition (IC50) was put at 40000 nM. Also, in series [2] (listed as pyridone analog), the “TRPML1-inhibitory activity (in words)” value was “completely inactive”.

Regarding `COc1ccc2c(c1)CC[C@@H]1[C@@H]2CC[C@]2(C)[C@@H](O)CC[C@@H]12` [EDME, estradiol methyl ether], the half-inhibitory concentration (IC50) in series [2] and in series [1] was 600 nM each time.

Take `C=Cc1ccc2c(c1)CC[C@@H]1[C@@H]2CC[C@]2(C)[C@@H](O)CC[C@@H]12` [PRU-10]: the half-maximal inhibitory concentration (IC50) in series [1] was 410 nM. Further, in series [3], the “estrogenic activity (in words)” value is reported as “reduced estrogenic activity”.

Take `CC(=O)c1ccc2c(c1)CC[C@@H]1[C@@H]2CC[C@]2(C)[C@@H](O)CC[C@@H]12` [PRU-12]: the IC50 in series [1] was 280 nM. For the same compound, the “estrogenic activity (in words)” value in series [3] is “reduced estrogenic activity”.

On to `C#C[C@]1(O)CC[C@H]2[C@@H]3CCc4cc(OC)ccc4[C@H]3CC[C@@]21C` [mestranol], for which, in series [1], the “TRPML1 inhibition (in words)” value is “considerable activity”.
